Earlier results in PMC7753040, “Discovery of a Potent RIPK3 Inhibitor for the Amelioration of Necroptosis-Associated Inflammatory Injury” (Frontiers in Cell and Developmental Biology, 2020).

Test system: RIPK3
Set-up: method as in Mandal et al., 2014
Settings: ref Mandal et al., 2014; cited from earlier work

SMILES: CC(C)S(=O)(=O)c1ccc2nccc(Nc3ccc4scnc4c3)c2c1 [GSK’872]
- induction of on-target apoptosis: able to induce on-target apoptosis
